From US8980569B2, “Chronic lymphocytic leukemia prognosis and treatment” (Duke University, priority 2007, dated 2015)

Test system: CLL cells
Conditions: freshly isolated CLL cells

COc1cc2c(cc1O)CC[C@@H]1[C@@H]2CC[C@]2(C)[C@@H](O)CC[C@@H]12 [2-ME, 2-methoxyestradiol]
percent cytotoxicity (at 10 μM, 72 hours): 71% | EC50 (read-out: effective dose for 50% killing (ED50), incubated 72 hours): 7.5 µM
